Bounds are passed on as bounds.

These results are taken from US10130642B2, “Neprilysin inhibitors” (THERAVANCE BIOPHARMA R&D IP, LLC, priority 2011, dated 2018).

One test deals with human NEP (Homo sapiens (Human), UniProt P08473). As to the kind of experiment: In vitro enzyme inhibition assay, inhibitor potencies at human NEP.
Chain of human NEP (P08473 52-750): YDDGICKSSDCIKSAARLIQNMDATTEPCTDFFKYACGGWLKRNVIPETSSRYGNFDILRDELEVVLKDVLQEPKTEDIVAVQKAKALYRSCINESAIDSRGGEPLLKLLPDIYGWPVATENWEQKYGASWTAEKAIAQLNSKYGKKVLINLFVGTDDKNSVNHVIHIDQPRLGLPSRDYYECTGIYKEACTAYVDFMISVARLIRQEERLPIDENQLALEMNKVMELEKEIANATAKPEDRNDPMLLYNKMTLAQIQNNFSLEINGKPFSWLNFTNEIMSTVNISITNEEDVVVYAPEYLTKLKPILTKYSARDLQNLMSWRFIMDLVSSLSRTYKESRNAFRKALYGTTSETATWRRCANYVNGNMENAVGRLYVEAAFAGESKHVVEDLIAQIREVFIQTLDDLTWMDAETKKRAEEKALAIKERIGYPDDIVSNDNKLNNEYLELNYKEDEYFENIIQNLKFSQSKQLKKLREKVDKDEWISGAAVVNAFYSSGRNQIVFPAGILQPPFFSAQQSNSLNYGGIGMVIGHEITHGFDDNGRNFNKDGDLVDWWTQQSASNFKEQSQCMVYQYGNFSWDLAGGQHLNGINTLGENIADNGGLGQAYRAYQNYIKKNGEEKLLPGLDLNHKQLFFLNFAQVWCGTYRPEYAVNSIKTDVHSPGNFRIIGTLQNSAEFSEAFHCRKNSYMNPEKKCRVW
Details: not given
One may read the Ki as the equilibrium dissociation constant of an inhibitor or competing ligand from its target. The compound `CC(CO)(C[C@@H](Cc1ccc(-c2ccccc2)cc1)NC(=O)c1cc(C(=O)O)n[nH]1)C(=O)O` (stereo partly drawn) [Example 6-15, 5-((R)-1-Biphenyl-4-ylmethyl-3-carboxy-4-hydroxy-3-methyl-butylcarbamoyl)-1H-pyrazole-3-carboxylic acid] came in with a Ki of at most 1 nM. The compound `C[C@@](CO)(C[C@@H](Cc1ccc(-c2ccccc2F)cc1)NC(=O)c1c[nH]c(=O)o1)C(=O)O` [Example 8-6, (2S,4R)-5-(2′-Fluoro-biphenyl-4-yl)-2-hydroxymethyl-2-methyl-4-[(2-oxo-2,3-dihydro-oxazole-5-carbonyl)-amino]-pentanoic acid] returned a Ki of at most 1 nM.

`O=C(N[C@H](Cc1ccc(-c2ccccc2F)cc1)C[C@@H](CO)C(=O)O)c1nc(Cl)n[nH]1` [Example 4-16, (2S,4S)-4-[(5-Chloro-2H-[1,2,4]triazole-3-carbonyl)-amino]-5-(2′-fluorobiphenyl-4-yl)-2-hydroxymethyl-pentanoic acid] came in with a Ki of at most 1 nM.

As to `CN(C)C(=O)c1cc(C(=O)N[C@H](Cc2ccc(-c3ccccc3)cc2)C[C@@H](CO)C(=O)O)[nH]n1` [Example 4-21, (2S,4S)-5-Biphenyl-4-yl-4-[(5-dimethylcarbamoyl-2H-pyrazole-3-carbonyl)-amino]-2-hydroxymethyl-pentanoic acid], the Ki was in the range of 1.26 to 10 nM. For `C[C@@](CO)(C[C@@H](Cc1ccc(-c2ccccc2)cc1)NC(=O)c1cnc(O)nc1)C(=O)O` [Example 6-18, (2S,4R)-5-Biphenyl-4-yl-2-hydroxymethyl-4-[(2-hydroxy-pyrimidine-5-carbonyl)-amino]-2-methyl-pentanoic acid], the Ki was at most 1 nM.

`C[C@@](CO)(C[C@@H](Cc1ccc(-c2cccc(F)c2)cc1)NC(=O)c1cnn[nH]1)C(=O)O` [Example 8-1, (2S,4R)-5-(3′-Fluorobiphenyl-4-yl)-2-hydroxymethyl-2-methyl-4-[(3H-[1,2,3]triazole-4-carbonyl)-amino]-pentanoic acid] returned a Ki of at most 1 nM. Same read-out and setting: with `C[C@@](CO)(C[C@@H](Cc1ccc(-c2ccccc2)cc1)NC(=O)c1cn(O)nn1)C(=O)O` [Example 6-4, (2S,4R)-5-Biphenyl-4-yl-2-hydroxymethyl-4-[(1-hydroxy-1H-[1,2,3]triazole-4-carbonyl)-amino]-2-methyl-pentanoic acid] the figure was at most 1 nM; with `C[C@@](CO)(C[C@@H](Cc1ccc(-c2ccccc2)cc1)NC(=O)c1nc(O)n[nH]1)C(=O)O` [Example 6-2, (2S,4R)-5-Biphenyl-4-yl-2-hydroxymethyl-4-[(5-hydroxy-2H-[1,2,4]triazole-3-carbonyl)-amino]-2-methyl-pentanoic acid], 12.6 to 100 nM. The same measure, in the same setting: with `C[C@](CO)(C[C@@H](Cc1ccc(-c2ccccc2)cc1)NC(=O)c1cnn[nH]1)C(=O)O` [Example 6-3, (2R,4R)-5-Biphenyl-4-yl-2-hydroxymethyl-2-methyl-4-[(3H-[1,2,3]triazole-4-carbonyl)-amino]-pentanoic acid] the figure was 12.6 to 100 nM; with `O=C(N[C@H](Cc1ccc(-c2ccccc2F)cc1)C[C@@H](CO)C(=O)O)c1cn(O)nn1` [Example 4-8, (2S,4S)-5-(2′-Fluorobiphenyl-4-yl)-2-hydroxymethyl-4-[(1-hydroxy-1H-[1,2,3]triazole-4-carbonyl)-amino]-pentanoic acid], at most 1 nM. With `O=C(N[C@H](Cc1ccc(-c2cccc(Cl)c2)cc1)C[C@@H](CO)C(=O)O)c1cn(O)nn1` [Example 4-10, (2S,4S)-5-(3′-Chloro-biphenyl-4-yl)-2-hydroxymethyl-4-[(1-hydroxy-1H-[1,2,3]triazole-4-carbonyl)-amino]-pentanoic acid], the Ki is at most 1 nM. In turn, `O=C(N[C@H](Cc1ccc(-c2ccccc2F)cc1)C[C@@H](CO)C(=O)O)c1cnn[nH]1` [Example 4-2, (2S,4S)-5-(2′-Fluorobiphenyl-4-yl)-2-hydroxymethyl-4-[(3H-[1,2,3]triazole-4-carbonyl)-amino]-pentanoic acid] returned an inhibition constant (Ki) of at most 1 nM. Regarding `CC(C)(c1ccc(-c2ccccc2)cc1)[C@H](C[C@@H](CO)C(=O)O)NC(=O)c1cnn[nH]1` [Example 10-2, (2S,4S)-5-Biphenyl-4-yl-2-hydroxymethyl-5-methyl-4-[(3H-[1,2,3]triazole-4-carbonyl)-amino]-hexanoic acid], the Ki was at most 1 nM. `C[C@@](CO)(C[C@@H](Cc1ccc(-c2ccccc2F)cc1)NC(=O)c1coc(=O)[nH]1)C(=O)O` [Example 8-5, (2S,4R)-5-(2′-Fluoro-biphenyl-4-yl)-2-hydroxymethyl-2-methyl-4-[(2-oxo-2,3-dihydro-oxazole-4-carbonyl)-amino]-pentanoic acid] displayed a Ki of at most 1 nM.

For the compound `O=C(N[C@H](Cc1ccc(-c2ccccc2)cc1)C[C@@H](CO)C(=O)O)c1cc(C(=O)N2CCCC2)n[nH]1` [Example 4-25, (2S,4S)-5-Biphenyl-4-yl-2-hydroxymethyl-4-{[5-(pyrrolidine-1-carbonyl)-2H-pyrazole-3-carbonyl]-amino}-pentanoic acid], the Ki is at most 1 nM. Turning to `CC(C)(c1ccc(-c2ccccc2)cc1)[C@H](C[C@@H](CO)C(=O)O)NC(=O)c1cc(O)no1` [Example 9, (2S,4S)-5-Biphenyl-4-yl-4-[(3-hydroxy-isoxazole-5-carbonyl)-amino]-2-hydroxymethyl-5-methyl-hexanoic Acid], the Ki is at most 1 nM. Consider `C[C@@](CO)(C[C@@H](Cc1ccc(-c2ccccc2F)cc1)NC(=O)c1cnn[nH]1)C(=O)O` [Example 8-2, (2S,4R)-5-(2′-Fluorobiphenyl-4-yl)-2-hydroxymethyl-2-methyl-4-[(3H-[1,2,3]triazole-4-carbonyl)-amino]-pentanoic acid], for which the Ki was at most 1 nM. Turning to `C[C@@](CO)(C[C@@H](Cc1ccc(-c2ccc(F)cc2)cc1)NC(=O)c1cnn[nH]1)C(=O)O` [Example 8-3, (2S,4R)-5-(4′-Fluorobiphenyl-4-yl)-2-hydroxymethyl-2-methyl-4-[(3H-[1,2,3]triazole-4-carbonyl)-amino]-pentanoic acid], the Ki fell in the range of 12.6 to 100 nM. As to `O=C(N[C@H](Cc1ccc(-c2ccccc2)cc1)C[C@@H](CO)C(=O)O)c1nc(Cl)n[nH]1` [Example 2A, (2S,4S)-5-Biphenyl-4-yl-4-[(5-chloro-2H-[1,2,4]-triazole-3-carbonyl)-amino]-2-hydroxymethyl-pentanoic acid], the Ki is 1.26 to 10 nM.

Still in this test, the particulars now being: pKi values at human NEP; recombinant human NEP, fluorogenic peptide substrate, 37° C.
Usually pKi stands for −log10 of the Ki, conventionally taken in molar units. For the compound `O=C(N[C@H](Cc1ccc(-c2cccc(F)c2)cc1)C[C@@H](CO)C(=O)O)c1nc(Cl)n[nH]1` [Example 3B, (2S,4S)-4-[(5-Chloro-2H-[1,2,4]triazole-3-carbonyl)amino]-5-(3′-fluorobiphenyl-4-yl)-2-hydroxymethyl-pentanoic acid], the pKi is on record as at least 9.0.
